Values after ≈ are worked out from the molar mass of the structure shown. Like-named read-outs stand apart in the source and are kept apart here.
Columns and labels:
[1] = Equilibrium (apparent) solubility of APR, shake flask method; format: physicochemical; conditions: for solubility at 24 h: thermodynamic from solid
Protocol: The solubility of APR in various buffers, oils, surfactants, cosurfactants, cosolvents, and formulations was measured using the shake flask method. Briefly, an excess APR was added into a polypropylene tube that contains a medium. Tube mixed by a vortex (Daihan VM-10, South Korea) for 1 min to disperse APR. Mixtures were shaken at 100 rpm for 24 h at various temperatures in a thermostatically controlled shaking water bath (Nüve ST30, Turkey). Mixtures were then centrifuged at 13,500 rpm (12,225× g) for 15 min. The supernatant samples were suitably diluted with the mobile phase. Drug concentration was obtained via the validated HPLC method.
Saturated SNEDDS were prepared by adding excess APR into blank preconcentrates and then precipitate the insoluble part of APR. Briefly, SNEDDS and excess APR mixtures were shaken at 100 rpm for 24 h at 37 °C in a shaking water bath. Mixtures were then centrifuged at 13,500 rpm (12,225× g) for 15 min. The supernatant was separated carefully to obtain saturated SNEDDS.

[2] = cited from earlier work
[3] = cited from earlier work; remark: listed apart in the source

C[C@@H](O[C@H]1OCCN(Cc2nc(=O)[nH][nH]2)[C@H]1c1ccc(F)cc1)c1cc(C(F)(F)F)cc(C(F)(F)F)c1 [APR, 5-(((2R,3S)-2-((1R)-1-(3,5-bis(trifluoromethyl)phenyl)ethoxy)-3-(4-fluorophenyl)4-morpholinyl)methyl)-1,2-dihydro-3H-1,2,4-triazol-3-one]
solubility at 24 h ([1]; 37 °C, organic solvent or mixture, Imwitor 988:Kolliphor RH40:Transcutol P (%) 20:60:20, 37 °C, read-out: APR solubility (loading capacity of SNEDDS preconcentrate)): 21600 µg/mL (≈ 40.5 mM)
solubility at 24 h ([1]; 37 °C, organic solvent or mixture, Imwitor 988:Kolliphor RH40:Transcutol P (%) 30:10:60, 37 °C, read-out: APR solubility (loading capacity of SNEDDS preconcentrate)): 55300 µg/mL (≈ 104 mM)
solubility at 24 h ([1]; Brij O10 (surfactant), 25 °C, aqueous with cosolvent or surfactant or cyclodextrin, surfactant Brij O10, 25 °C, read-out: APR solubility): 9870 µg/mL (≈ 18.5 mM)
solubility at 24 h ([1]; Capryol 90 (cosurfactant), 25 °C, organic solvent or mixture, cosurfactant Capryol 90, 25 °C, read-out: APR solubility): 17000 µg/mL (≈ 31.8 mM)
solubility at 24 h ([1]; Castor oil (oily excipient), 25 °C, oil or lipid, oily excipient Castor oil, 25 °C, read-out: APR solubility): 2920 µg/mL (≈ 5.47 mM)
solubility at 24 h ([1]; Cinnamon oil (oily excipient), 25 °C, oil or lipid, oily excipient Cinnamon oil, 25 °C, read-out: APR solubility): 8470 µg/mL (≈ 15.8 mM)
solubility at 24 h ([1]; Eucalyptus oil (oily excipient), 25 °C, oil or lipid, oily excipient Eucalyptus oil, 25 °C, read-out: APR solubility): 6840 µg/mL (≈ 12.8 mM)
solubility at 24 h ([1]; Glycerine (cosolvent), 25 °C, organic solvent or mixture, cosolvent Glycerine, 25 °C, read-out: APR solubility): 13 µg/mL (≈ 0.0243 mM)
solubility at 24 h ([1]; Imwitor 988 (oily excipient), 25 °C, oil or lipid, oily excipient Imwitor 988, 25 °C, read-out: APR solubility): 19800 µg/mL (≈ 37 mM)
solubility at 24 h ([1]; Kolliphor ELP (surfactant), 25 °C, aqueous with cosolvent or surfactant or cyclodextrin, surfactant Kolliphor ELP, 25 °C, read-out: APR solubility): 4230 µg/mL (≈ 7.92 mM)
solubility at 24 h ([1]; Kolliphor HS15 (surfactant), 25 °C, aqueous with cosolvent or surfactant or cyclodextrin, surfactant Kolliphor HS15, 25 °C, read-out: APR solubility): 7160 µg/mL (≈ 13.4 mM)
solubility at 24 h ([1]; Kolliphor RH40 (surfactant), 25 °C, aqueous with cosolvent or surfactant or cyclodextrin, surfactant Kolliphor RH40, 25 °C, read-out: APR solubility): 8980 µg/mL (≈ 16.8 mM)
solubility at 24 h ([1]; Kollisolv GTA (oily excipient), 25 °C, oil or lipid, oily excipient Kollisolv GTA, 25 °C, read-out: APR solubility): 3150 µg/mL (≈ 5.89 mM)
solubility at 24 h ([1]; Kollisolv P124 (surfactant), 25 °C, aqueous with cosolvent or surfactant or cyclodextrin, surfactant Kollisolv P124, 25 °C, read-out: APR solubility): 10700 µg/mL (≈ 20 mM)
solubility at 24 h ([1]; Labrafac PG (oily excipient), 25 °C, oil or lipid, oily excipient Labrafac PG, 25 °C, read-out: APR solubility): 427 µg/mL (≈ 0.799 mM)
solubility at 24 h ([1]; Labrafac lipophile WL 1349 (oily excipient), 25 °C, oil or lipid, oily excipient Labrafac lipophile WL 1349, 25 °C, read-out: APR solubility): 282 µg/mL (≈ 0.528 mM)
solubility at 24 h ([1]; Labrafil M 1944 CS (surfactant), 25 °C, aqueous with cosolvent or surfactant or cyclodextrin, surfactant Labrafil M 1944 CS, 25 °C, read-out: APR solubility): 3500 µg/mL (≈ 6.55 mM)
solubility at 24 h ([1]; Labrafil M 2125 CS (surfactant), 25 °C, aqueous with cosolvent or surfactant or cyclodextrin, surfactant Labrafil M 2125 CS, 25 °C, read-out: APR solubility): 2840 µg/mL (≈ 5.32 mM)
solubility at 24 h ([1]; Labrasol (surfactant), 25 °C, aqueous with cosolvent or surfactant or cyclodextrin, surfactant Labrasol, 25 °C, read-out: APR solubility): 15900 µg/mL (≈ 29.8 mM)
solubility at 24 h ([1]; Lauroglycol 90 (cosurfactant), 25 °C, organic solvent or mixture, cosurfactant Lauroglycol 90, 25 °C, read-out: APR solubility): 9320 µg/mL (≈ 17.4 mM)
solubility at 24 h ([1]; Lauroglycol FCC (cosurfactant), 25 °C, organic solvent or mixture, cosurfactant Lauroglycol FCC, 25 °C, read-out: APR solubility): 14200 µg/mL (≈ 26.6 mM)
solubility at 24 h ([1]; Lemon oil (oily excipient), 25 °C, oil or lipid, oily excipient Lemon oil, 25 °C, read-out: APR solubility): 3090 µg/mL (≈ 5.79 mM)
solubility at 24 h ([1]; Maisine CC (oily excipient), 25 °C, oil or lipid, oily excipient Maisine CC, 25 °C, read-out: APR solubility): 5360 µg/mL (≈ 10 mM)
solubility at 24 h ([1]; Miglyol 812 (oily excipient), 25 °C, oil or lipid, oily excipient Miglyol 812, 25 °C, read-out: APR solubility): 299 µg/mL (≈ 0.559 mM)
solubility at 24 h ([1]; Miglyol 840 (oily excipient), 25 °C, oil or lipid, oily excipient Miglyol 840, 25 °C, read-out: APR solubility): 1590 µg/mL (≈ 2.97 mM)
solubility at 24 h ([1]; Oleic acid (oily excipient), 25 °C, oil or lipid, oily excipient Oleic acid, 25 °C, read-out: APR solubility): 8480 µg/mL (≈ 15.9 mM)
solubility at 24 h ([1]; Olive Yağı (oily excipient), 25 °C, oil or lipid, oily excipient Olive Yağı, 25 °C, read-out: APR solubility): 181 µg/mL (≈ 0.339 mM)
solubility at 24 h ([1]; PEG 200 (cosolvent), 25 °C, organic solvent or mixture, cosolvent PEG 200, 25 °C, read-out: APR solubility): 11700 µg/mL (≈ 21.9 mM)
solubility at 24 h ([1]; PEG 400 (cosolvent), 25 °C, organic solvent or mixture, cosolvent PEG 400, 25 °C, read-out: APR solubility): 12000 µg/mL (≈ 22.5 mM)
solubility at 24 h ([1]; Peceol (oily excipient), 25 °C, oil or lipid, oily excipient Peceol, 25 °C, read-out: APR solubility): 7780 µg/mL (≈ 14.5 mM)
solubility at 24 h ([1]; Peppermint oil (oily excipient), 25 °C, oil or lipid, oily excipient Peppermint oil, 25 °C, read-out: APR solubility): 16600 µg/mL (≈ 31 mM)
solubility at 24 h ([1]; Plurol Oleique CC 497 (cosurfactant), 25 °C, organic solvent or mixture, cosurfactant Plurol Oleique CC 497, 25 °C, read-out: APR solubility): 4140 µg/mL (≈ 7.75 mM)
solubility at 24 h ([1]; Propylene glycol (cosolvent), 25 °C, organic solvent or mixture, cosolvent Propylene glycol, 25 °C, read-out: APR solubility): 8380 µg/mL (≈ 15.7 mM)
solubility at 24 h ([1]; Sesame oil (oily excipient), 25 °C, oil or lipid, oily excipient Sesame oil, 25 °C, read-out: APR solubility): 2230 µg/mL (≈ 4.17 mM)
solubility at 24 h ([1]; Transcutol P (cosolvent), 25 °C, organic solvent or mixture, cosolvent Transcutol P, 25 °C, read-out: APR solubility): 46500 µg/mL (≈ 87 mM)
solubility at 24 h ([1]; Tween 20 (surfactant), 25 °C, aqueous with cosolvent or surfactant or cyclodextrin, surfactant Tween 20, 25 °C, read-out: APR solubility): 7820 µg/mL (≈ 14.6 mM)
solubility at 24 h ([1]; Tween 60 (surfactant), 25 °C, aqueous with cosolvent or surfactant or cyclodextrin, surfactant Tween 60, 25 °C, read-out: APR solubility): 5040 µg/mL (≈ 9.44 mM)
solubility at 24 h ([1]; Tween 80 (surfactant), 25 °C, aqueous with cosolvent or surfactant or cyclodextrin, surfactant Tween 80, 25 °C, read-out: APR solubility): 2140 µg/mL (≈ 4 mM)
solubility at 24 h ([1]; blank SNEDDS preconcentrate, 37 °C, organic solvent or mixture, Imwitor 988:Kolliphor RH40:Transcutol P (%) 10:30:60, 37 °C, read-out: APR solubility (loading capacity of SNEDDS preconcentrate)): 43100 µg/mL (≈ 80.7 mM)
solubility at 24 h ([1]; blank SNEDDS preconcentrate, 37 °C, organic solvent or mixture, Imwitor 988:Kolliphor RH40:Transcutol P (%) 10:40:50, 37 °C, read-out: APR solubility (loading capacity of SNEDDS preconcentrate)): 34600 µg/mL (≈ 64.7 mM)
solubility at 24 h ([1]; blank SNEDDS preconcentrate, 37 °C, organic solvent or mixture, Imwitor 988:Kolliphor RH40:Transcutol P (%) 10:50:40, 37 °C, read-out: APR solubility (loading capacity of SNEDDS preconcentrate)): 26900 µg/mL (≈ 50.4 mM)
solubility at 24 h ([1]; blank SNEDDS preconcentrate, 37 °C, organic solvent or mixture, Imwitor 988:Kolliphor RH40:Transcutol P (%) 10:60:30, 37 °C, read-out: APR solubility (loading capacity of SNEDDS preconcentrate)): 22900 µg/mL (≈ 42.9 mM)
solubility at 24 h ([1]; blank SNEDDS preconcentrate, 37 °C, organic solvent or mixture, Imwitor 988:Kolliphor RH40:Transcutol P (%) 10:70:20, 37 °C, read-out: APR solubility (loading capacity of SNEDDS preconcentrate)): 18800 µg/mL (≈ 35.2 mM)
solubility at 24 h ([1]; blank SNEDDS preconcentrate, 37 °C, organic solvent or mixture, Imwitor 988:Kolliphor RH40:Transcutol P (%) 10:80:10, 37 °C, read-out: APR solubility (loading capacity of SNEDDS preconcentrate)): 15500 µg/mL (≈ 28.9 mM)
solubility at 24 h ([1]; blank SNEDDS preconcentrate, 37 °C, organic solvent or mixture, Imwitor 988:Kolliphor RH40:Transcutol P (%) 20:10:70, 37 °C, read-out: APR solubility (loading capacity of SNEDDS preconcentrate)): 51000 µg/mL (≈ 95.4 mM)
solubility at 24 h ([1]; blank SNEDDS preconcentrate, 37 °C, organic solvent or mixture, Imwitor 988:Kolliphor RH40:Transcutol P (%) 20:40:40, 37 °C, read-out: APR solubility (loading capacity of SNEDDS preconcentrate)): 29000 µg/mL (≈ 54.3 mM)
solubility at 24 h ([1]; blank SNEDDS preconcentrate, 37 °C, organic solvent or mixture, Imwitor 988:Kolliphor RH40:Transcutol P (%) 20:50:30, 37 °C, read-out: APR solubility (loading capacity of SNEDDS preconcentrate)): 23500 µg/mL (≈ 44 mM)
solubility at 24 h ([1]; blank SNEDDS preconcentrate, 37 °C, organic solvent or mixture, Imwitor 988:Kolliphor RH40:Transcutol P (%) 20:70:10, 37 °C, read-out: APR solubility (loading capacity of SNEDDS preconcentrate)): 15800 µg/mL (≈ 29.6 mM)
solubility at 24 h ([1]; blank SNEDDS preconcentrate, 37 °C, organic solvent or mixture, Imwitor 988:Kolliphor RH40:Transcutol P (%) 30:20:50, 37 °C, read-out: APR solubility (loading capacity of SNEDDS preconcentrate)): 45100 µg/mL (≈ 84.3 mM)
solubility at 24 h ([1]; blank SNEDDS preconcentrate, 37 °C, organic solvent or mixture, Imwitor 988:Kolliphor RH40:Transcutol P (%) 30:60:10, 37 °C, read-out: APR solubility (loading capacity of SNEDDS preconcentrate)): 17000 µg/mL (≈ 31.9 mM)
solubility at 24 h ([1]; buffer pH 1.2, 37 °C, pH 1.2, simulated gastric fluid, buffer pH 1.2, 37 °C, 24 h, read-out: APR solubility): 15.6 µg/mL (≈ 0.0293 mM)
solubility at 24 h ([1]; buffer pH 4.5, 37 °C, pH 4.5, aqueous buffer, buffer pH 4.5, 37 °C, 24 h, read-out: APR solubility): 0.79 µg/mL (≈ 0.00148 mM)
APR solubility ([1]; buffer pH 6.8, 37 °C, 24 h): < LOD
APR solubility ([1]; buffer pH 7.4, 37 °C, 24 h): < LOD
solubility in acetonitrile ([2]; acetonitrile): slightly soluble
logP ([2]; at neutral pH): 4.8
permeability [2]: moderate
solubility in ethanol ([2]; ethanol): sparingly soluble
solubility in isopropyl acetate ([2]; isopropyl acetate): sparingly soluble
pKa ([2]; ref 5): 9.7
Biopharmaceutical Classification System (BCS) class ([2]; ref 7): Class II
Biopharmaceutical Classification System (BCS) class ([2]; ref 8): Class IV
solubility in water ([2]; water): practically insoluble
mean oral bioavailability ([3]; 80 mg Emend capsule): 67%
mean oral bioavailability ([3]; 125 mg Emend capsule): 59%
time to maximum plasma concentration (Tmax) ([3]; in vivo): 4 h
time of mean peak plasma concentration ([3]; ref 14): approximately 4 h

From article PMC8621193, “In Vitro Evaluation of a Solid Supersaturated Self Nanoemulsifying Drug Delivery System (Super-SNEDDS) of Aprepitant for Enhanced Solubility” (Pharmaceuticals, 2021)
